Values joined by “and” are separate entries in the source; they are usually repeats but may differ in a detail not shown here. Equal values may be shown once. Toxic doses and inconclusive results are not listed. Rule for the calls: active = survival T/C of 150% or more; inactive = T/C below 125% in these data.
System: P388 leukemia ip, CD2F1 mice, survival T/C
Assay: NCI In Vivo Anticancer Drug Screen. Data for tumor model P388 Leukemia (intraperitoneal) in CD2F1 (CDF1) mice
Details: endpoint: median survival time, higher = longer survival
How it was run: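 Mice carrying the transplanted tumor received test compound or vehicle. Survival was recorded in each group, and the value is the treated-group measurement divided by that of the vehicle-treated control group.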

[1] = dose: 50.0 mg/kg/injection, schedule: Q01DX009 (ip), vehicle: saline
[2] = dose: 100.0 mg/kg/injection, schedule: Q01DX009 (ip), vehicle: saline
[3] = dose: 50.0 mg/kg/injection, schedule: Q01DX009 (ip), vehicle: Klucel (hydroxypropylcellulose) (HPC)
[4] = dose: 100.0 mg/kg/injection, schedule: Q01DX009 (ip), vehicle: Klucel (hydroxypropylcellulose) (HPC)
[5] = dose: 50.0 mg/kg/injection, schedule: Q01DX005 (ip), vehicle: Klucel (hydroxypropylcellulose) (HPC)
[6] = dose: 100.0 mg/kg/injection, schedule: Q01DX005 (ip), vehicle: Klucel (hydroxypropylcellulose) (HPC)
[7] = dose: 200.0 mg/kg/injection, schedule: Q01DX005 (ip), vehicle: Klucel (hydroxypropylcellulose) (HPC)
[8] = dose: 50.0 mg/kg/injection, schedule: Q01DX005 (ip), vehicle: saline with Tween-80
[9] = dose: 100.0 mg/kg/injection, schedule: Q01DX005 (ip), vehicle: saline with Tween-80
[10] = dose: 200.0 mg/kg/injection, schedule: Q01DX005 (ip), vehicle: saline with Tween-80
[11] = dose: 50.0 mg/kg/injection, schedule: Q01DX009 (ip), vehicle: saline with Tween-80
[12] = dose: 100.0 mg/kg/injection, schedule: Q01DX009 (ip), vehicle: saline with Tween-80
[13] = dose: 60.0 mg/kg/injection, schedule: Q01DX005 (ip), vehicle: saline with Tween-80
[14] = dose: 120.0 mg/kg/injection, schedule: Q01DX005 (ip), vehicle: saline with Tween-80
[15] = dose: 240.0 mg/kg/injection, schedule: Q01DX005 (ip), vehicle: saline with Tween-80
[16] = dose: 25.0 mg/kg/injection, schedule: Q01DX009 (ip), vehicle: saline with Tween-80
[17] = dose: 100.0 mg/kg/injection, schedule: Q04DX003 (ip), vehicle: saline
[18] = dose: 200.0 mg/kg/injection, schedule: Q04DX003 (ip), vehicle: saline
[19] = dose: 400.0 mg/kg/injection, schedule: Q04DX003 (ip), vehicle: saline

Measured: T/C

CC(C)=CC1C(C(=O)OC23C=CC(CC2C)C3)C1(C)C (stereo not drawn)
inactive: [1] 104 % of control | [2] 98 % of control | dose: 200.0 mg/kg/injection, schedule: Q01DX009 (ip), vehicle: saline 102 % of control

Oc1ccc(C(c2ccc(O)cc2)C(Cl)(Cl)Cl)cc1
inactive: dose: 50.0 mg/kg/injection, schedule: Q04DX003 (ip), vehicle: saline + Tween-80 + alcohol 104 % of control | dose: 100.0 mg/kg/injection, schedule: Q04DX003 (ip), vehicle: saline + Tween-80 + alcohol 101 % of control | dose: 200.0 mg/kg/injection, schedule: Q04DX003 (ip), vehicle: saline + Tween-80 + alcohol 103 % of control | dose: 400.0 mg/kg/injection, schedule: Q04DX003 (ip), vehicle: saline + Tween-80 + alcohol 111 % of control

[O-][n+]1onc2ccccc21
inactive: dose: 25.0 mg/kg/injection, schedule: Q04DX002 (ip), vehicle: saline with Tween-80 103 % of control | dose: 50.0 mg/kg/injection, schedule: Q04DX002 (ip), vehicle: saline with Tween-80 109 % of control | dose: 100.0 mg/kg/injection, schedule: Q04DX002 (ip), vehicle: saline with Tween-80 90 % of control

CC1CCC2C(OC(=O)C23CO3)C2(C)C(=O)C=CC12 (stereo not drawn)
inactive: dose: 2.5 mg/kg/injection, schedule: Q01DX009 (ip), vehicle: saline + alcohol 86 % of control | dose: 5.0 mg/kg/injection, schedule: Q01DX009 (ip), vehicle: saline + alcohol 100 % of control | dose: 10.0 mg/kg/injection, schedule: Q01DX009 (ip), vehicle: saline + alcohol 101 % of control | dose: 20.0 mg/kg/injection, schedule: Q01DX009 (ip), vehicle: saline + alcohol 99 % of control

CCCCN1C(=O)N/C(=C/C(=O)OCC)C1=O
inactive: dose: 25.0 mg/kg/injection, schedule: Q01DX009 (ip), vehicle: Klucel (hydroxypropylcellulose) (HPC) 93 % of control | [3] 103 % of control | [4] 102 % of control

O=c1sc2ccccc2n1CN(CCO)Cn1c(=O)sc2ccccc21
inactive: [5] 91 % of control | [6] 89 % of control | [7] 90 % of control

CC(=O)O/C1=C\CCCCCCCCCC1
inactive: [8] 95 % of control | [9] 90 % of control | [10] 110 % of control

Cc1nc(CO)cc([N+](=O)[O-])c1C
inactive: dose: 12.5 mg/kg/injection, schedule: Q01DX009 (ip), vehicle: distilled water + Tween-80 101 % of control | dose: 25.0 mg/kg/injection, schedule: Q01DX009 (ip), vehicle: distilled water + Tween-80 101 % of control | dose: 50.0 mg/kg/injection, schedule: Q01DX009 (ip), vehicle: distilled water + Tween-80 100 % of control | dose: 100.0 mg/kg/injection, schedule: Q01DX009 (ip), vehicle: distilled water + Tween-80 101 % of control | dose: 200.0 mg/kg/injection, schedule: Q01DX009 (ip), vehicle: distilled water + Tween-80 104 % of control

CC(C)(C)N(C/C=C/CN(Cc1ccccc1)Cc1ccccc1)C(C)(C)C
inactive: [11] 87 % of control | [12] 95 % of control

O=C([CH-]C(=O)C(F)(F)F)c1ccccc1.O=C([CH-]C(=O)C(F)(F)F)c1ccccc1.O=C([CH-]C(=O)C(F)(F)F)c1ccccc1.O=C([CH-]C(=O)C(F)(F)F)c1ccccc1.[Eu+3].c1ccncc1
inactive: [3] 113 % of control | [4] 104 % of control

[N-]=[N+]=Nc1cc(Cl)nnc1-c1ccccc1
inactive: dose: 15.0 mg/kg/injection, schedule: Q01DX005 (ip), vehicle: Klucel (hydroxypropylcellulose) (HPC) 107 % of control | dose: 30.0 mg/kg/injection, schedule: Q01DX005 (ip), vehicle: Klucel (hydroxypropylcellulose) (HPC) 105 % of control | dose: 60.0 mg/kg/injection, schedule: Q01DX005 (ip), vehicle: Klucel (hydroxypropylcellulose) (HPC) 100 % of control

Nc1nc(-c2cc(C(c3ccccc3)c3ccccc3)nc(N)n2)cc(C(c2ccccc2)c2ccccc2)n1
inactive: [13] 105 % of control | [14] 109 % of control | [15] 101 % of control

NCCCN1c2ccccc2Sc2ccc(Cl)cc21
inactive: [16] 99 % of control and 90 % of control | [11] 113 % of control and 120 % of control

O=C(CCSCCCl)Nc1c(C(=O)O)cc([N+](=O)[O-])cc1[N+](=O)[O-]
inactive: dose: 3.13 mg/kg/injection, schedule: Q04DX003 (ip), vehicle: DMSO 94 % of control | dose: 6.25 mg/kg/injection, schedule: Q04DX003 (ip), vehicle: DMSO 100 % of control | dose: 12.5 mg/kg/injection, schedule: Q04DX003 (ip), vehicle: DMSO 102 % of control | dose: 25.0 mg/kg/injection, schedule: Q04DX003 (ip), vehicle: DMSO 111 % of control | dose: 50.0 mg/kg/injection, schedule: Q04DX003 (ip), vehicle: DMSO 102 % of control and 109 % of control | dose: 100.0 mg/kg/injection, schedule: Q04DX003 (ip), vehicle: DMSO 116 % of control

CN1C(=O)C(CCCN=C(N)N)NC1=S (stereo not drawn)
inactive: dose: 60.0 mg/kg/injection, schedule: Q01DX005 (ip), vehicle: saline 98 % of control | dose: 120.0 mg/kg/injection, schedule: Q01DX005 (ip), vehicle: saline 111 % of control | dose: 240.0 mg/kg/injection, schedule: Q01DX005 (ip), vehicle: saline 104 % of control

CC12CC[C]([Hg][I])(CC1)C2(C)C
inactive: dose: 6.25 mg/kg/injection, schedule: Q01DX009 (ip), vehicle: saline with Tween-80 105 % of control | dose: 12.5 mg/kg/injection, schedule: Q01DX009 (ip), vehicle: saline with Tween-80 112 % of control | [16] 107 % of control

O=C(NCCCCCCCCNC(=O)C12CC3CC(CC(C3)C1)C2)C12CC3CC(CC(C3)C1)C2
inactive: [8] 86 % of control | [9] 86 % of control | [10] 96 % of control

CCOC(=O)NC1c2ccccc2Oc2c(C)cccc21 (stereo not drawn)
inactive: [8] 100 % of control | [9] 100 % of control | [10] 100 % of control

COc1ccc2c(c1)C(C)(C#N)N(C)C(=O)C2=O (stereo not drawn)
inactive: dose: 100.0 mg/kg/injection, schedule: Q01DX001 (ip), vehicle: saline with Tween-80 100 % of control | dose: 200.0 mg/kg/injection, schedule: Q01DX001 (ip), vehicle: saline with Tween-80 101 % of control | dose: 400.0 mg/kg/injection, schedule: Q01DX001 (ip), vehicle: saline with Tween-80 96 % of control

Cc1nc(Cl)c2[nH]c(Cl)nc2n1
inactive: [5] 102 % of control | [6] 102 % of control | [7] 100 % of control

O=[N+]([O-])c1ccc(-c2nc(CN3CCOCC3)cs2)s1
inactive: [16] 98 % of control | [11] 103 % of control | [12] 106 % of control

CN(C)CCc1ccc2ccc3cccc4ccc1c2c34
inactive: [11] 107 % of control | [12] 102 % of control | dose: 200.0 mg/kg/injection, schedule: Q01DX009 (ip), vehicle: saline with Tween-80 108 % of control

COc1ccc2c(c1)CCC1OC(c3cccnc3)OC21 (stereo not drawn)
inactive: [13] 99 % of control | [14] 99 % of control | [15] 97 % of control

CCOC(=O)c1cnc(Sc2ccc([N+](=O)[O-])cc2[N+](=O)[O-])nc1N
inactive: [17] 93 % of control | [18] 100 % of control | [19] 98 % of control

Cc1ncc([N+](=O)[O-])n1CCN=[N+]=[N-]
inactive: dose: 50.0 mg/kg/injection, schedule: Q04DX003 (ip), vehicle: saline 99 % of control and 100 % of control | [17] 101 % of control and 107 % of control | [18] 100 % of control and 112 % of control | [19] 100 % of control and 107 % of control

O=C(O)Cc1ccc(C2CCCCC2)cc1
inactive: dose: 100.0 mg/kg/injection, schedule: Q04DX003 (ip), vehicle: Klucel (hydroxypropylcellulose) (HPC) 90 % of control | dose: 200.0 mg/kg/injection, schedule: Q04DX003 (ip), vehicle: Klucel (hydroxypropylcellulose) (HPC) 100 % of control | dose: 400.0 mg/kg/injection, schedule: Q04DX003 (ip), vehicle: Klucel (hydroxypropylcellulose) (HPC) 100 % of control

O=C(O)C(CS)NSc1ccccc1[N+](=O)[O-] (stereo not drawn)
inactive: [13] 111 % of control | [14] 112 % of control | [15] 102 % of control

CC12CCCC(O1)C(C)(C)O2 (stereo not drawn)
inactive: [1] 99 % of control | [2] 89 % of control

— PubChem BioAssay AID330 (DTP/NCI, 2004)
